# ChEMBL document CHEMBL1157539, “Thousands of chemical starting points for antimalarial lead identification” (Nature, 2010)
# Test system: Plasmodium falciparum
# Assay: GSK_TCMDC: Inhibition of Plasmodium falciparum 3D7 in whole erythrocytes, using parasite LDH activity as an index of growth.
# Type: functional, organism-based
# Conditions: not given
row,SMILES,XC50
1,COc1cc(/C=C/C(=O)NC2CCC(CN3CCC(c4c[nH]c5ccccc45)CC3)CC2)ccc1O (configuration not stated),791 nM

# Same assay, conditions: Plasmodium falciparum, 3D7
row,SMILES,XC50
1,O=[N+]([O-])c1cccc(CNCC2CCN(Cc3ccc(-c4ccccc4)cc3)CC2)c1,248 nM
2,N#Cc1ccc(N2CCN(Cc3cccc(-c4ccc(-c5nc6cc(C(F)(F)F)ccc6[nH]5)s4)c3)CC2)nc1,1040 nM
3,COc1ccc(CCN(C)CCc2ccc(NC(=O)c3cccc4c(=O)c5ccccc5sc34)cc2)cc1,859 nM
4,Cc1ccc(Cn2cnc(N3CC(C)NC(C)C3)cc2=O)cc1NC(=O)Nc1ccc(-c2ccccc2)cc1 (configuration not stated),851 nM
5,CN1CCC(NCc2cccc(-c3cnc(NCc4ccccc4)nc3)c2)CC1,965 nM
6,COc1cc2cc(-c3nc4ccccc4[nH]3)c(N)nc2cc1OC,168 nM
7,N=C(N)NC(=O)Nc1ccc(Cl)c([N+](=O)[O-])c1,762 nM
8,O=C(Nc1ccc(N2CCCCC2)c(Cl)c1)c1ccco1,409 nM
9,CCN(CC)CCc1ccc2c(=O)cc(CCc3cccc(F)c3F)n(CC(=O)N(C)Cc3ccc(-c4ccc(C(F)(F)F)cc4)cc3)c2c1,862 nM
10,CNC(=O)c1cnc(Nc2ccc(N3CCN(C)CC3)cc2)nc1Nc1cccc(OC)c1,752 nM
11,COc1cc(NC2=NS(=O)(=O)c3cc(Cl)ccc3N2C)cc(OC)c1OC,420 nM
12,Cc1cc(C)cc(CC(=O)N2CCC(n3c(C)nc4ccc(C)cc43)CC2)c1,534 nM
13,OCCN1CCN(Cc2cccc(-c3ccc(-c4nc5cc(C(F)(F)F)ccc5[nH]4)cc3)c2)CC1,559 nM
14,COc1ccc2ncc(F)c(CCN3CCC(CNCc4cccc5c4OCO5)CC3)c2n1,934 nM
15,CC(COc1ccc2c(c1)OC(C)(C)CC2c1ccccc1)NCC(O)c1cccc(Cl)c1 (configuration not stated),752 nM
16,O=C(Nc1ccccc1Cl)c1cc2ccccc2cc1O,1010 nM
17,CCN(CC)CCn1c(=N)n(CC(=O)c2ccc(-c3ccccc3)cc2)c2ccccc21,1140 nM
18,COc1ccc(NC(=O)[C@H](CC(C)C)Nc2cc(C)nc(NCc3ccccc3C)n2)cc1,888 nM
19,CCC(C)(C)c1ccc(Oc2ccc(NC(=O)Nc3ccc(Cl)c(Cl)c3)cc2)cc1,704 nM
20,CN1CCCC1CCOc1ccc2c(c1)N(C(=O)Nc1cc(Br)cc(C(F)(F)F)c1)CC2 (configuration not stated),247 nM
21,O=C(Cc1ccccc1)NC1(c2ccccc2)CCN(CCc2c[nH]c3ccc(F)cc23)CC1,878 nM
22,COc1cc(C(=O)NCCCN2CCN(c3cccc(Cl)c3)CC2)ccc1-c1nc2cc(Cl)c(F)cc2[nH]1,1020 nM
23,O=C(/C=C/c1ccc(Cl)c(Cl)c1)NCCCCCN1CCC(C(=O)Nc2ccc(F)c(Cl)c2)CC1,647 nM
24,O=C(/C=C/c1ccc(Cl)c(Cl)c1)NCCCCCN1CCC(NC(=O)Nc2ccc(Cl)c(Cl)c2)CC1,892 nM

row,SMILES,XC50
1,O=S(=O)(c1ccccc1C(F)(F)F)C1CC2CCC(C1)N2S(=O)(=O)c1ccc(Cl)c(C(F)(F)F)c1 (configuration not stated),706 nM
2,CCc1cn2c3c(cc(C(=O)N[C@@H](Cc4ccccc4)[C@H](O)CNC(C)C)cc13)N(C)S(=O)(=O)C2,317 nM
3,CCN(CC)CCN1C(=O)C(O)(c2ccccc2Cl)c2c1cc(C#N)cc2C(F)(F)F (configuration not stated),947 nM
4,CCNc1cc(C(=O)N[C@@H](Cc2ccccc2)[C@H](O)CN[C@@H](C)c2ccccc2)cc(N2CCCC2=O)c1,666 nM
5,Brc1cc(Br)c2c(c1)C(NCCCNc1nc3ncccc3[nH]1)CCN2 (configuration not stated),595 nM
6,CC(C)c1cccc(C(C)C)c1NC(=O)NNC(=O)c1ccc(CCN2CCC(c3nc(COCC(F)(F)F)c(-c4ccc(F)cc4)o3)CC2)cc1,1090 nM
7,COc1ccc(CNC(=O)c2cc3c(=O)n4ccccc4nc3n(CCc3ccccc3)c2=N)cc1,330 nM
8,COc1ccc2nccc([C@@H](O)CN3CCC(NCc4ccc5nnsc5c4)CC3)c2c1,714 nM
9,COc1ccc(NC(=O)c2ccc(-c3cc(NC(=O)c4ccnc(N5CCCC5)c4)ccc3C)s2)cc1N1CCN(C)CC1,245 nM
10,NOCCCOc1ccc(Cl)cc1,574 nM
11,CCCC(C(=O)OCCN(CC)CC)(c1ccc(Cl)cc1)c1ccc(Cl)cc1,880 nM
12,CCCN(C(=O)c1ccccc1C)c1nnc(-c2ccccc2C)s1,1110 nM
13,CN1CCCc2ccc(NC(=O)c3cc(-c4ccc(Cl)cc4)cs3)cc2C1,793 nM
14,c1nc2nc3c(c(Nc4ccc5c(c4)CCC5)n2n1)CCC3,917 nM
15,COc1cc(/C=C/C(=O)NC2CCC(CN3CCC(c4c[nH]c5ccccc45)CC3)CC2)ccc1O (configuration not stated),809 nM
16,CC(C)CNc1c2c(nc3cnn(-c4c5c(nc6cn[nH]c46)CCCC5)c13)CCCC2,795 nM
17,CCCCCCn1c(Sc2ccc(C#N)c([N+](=O)[O-])c2)nnc1-c1ccc(Cl)cc1,832 nM
18,CN1CCc2cc(O)c(NS(=O)(=O)c3ccc(-c4ccc(Cl)cc4)cc3)cc2CC1,767 nM
19,CCc1ccc(S(=O)(=O)Nc2ccc(CCN(C)C3CCN(C)CC3)cc2)cc1,1060 nM
20,COc1cccc(C(=O)C2CC2CN2CC=C(c3c[nH]c4cccc(Br)c34)CC2)c1 (configuration not stated),752 nM
21,CCOc1c(CNCCCNc2cc(O)c3ccccc3n2)cc(Br)cc1OC,1160 nM
22,Cc1cc(NCCC(=O)NCCOc2ccccc2)nc(Nc2ccccc2)n1,1060 nM
23,OCC1CCN(Cc2cccc(-c3ccc(-c4nc5cc(C(F)(F)F)ccc5[nH]4)cc3)c2)CC1,662 nM
24,O=C(NC1CCCCCC1)C1CCCN(C(=O)c2ccc(O)c(-c3ccc(Cl)c(Cl)c3)c2)C1 (configuration not stated),763 nM

row,SMILES,XC50
1,Fc1ccc2[nH]c(-c3ccc(-c4ccc(CN5CCN(c6ccncc6)CC5)cc4)cc3)nc2c1,251 nM
2,N=C(N)c1cccc(-c2cc(-c3cccc(C(=N)N)c3)on2)c1,86 nM
3,CC(=O)Nc1cccc(C(=O)Nc2ccc(-c3ccc(-c4nc5cccc(C)c5[nH]4)s3)cc2)c1,1740 nM
4,Cc1cccn2c(=O)c3cc(C(=O)NCc4cccnc4)c(=N)n(CCc4ccccc4)c3nc12,714 nM
5,Fc1ccc2[nH]c(-c3ccccc3)nc2c1CN1CCC(N2CCCC2)CC1,717 nM
6,CCN(CC)C(=O)C(=O)c1c[nH]c2ccc(Cl)cc12,81.1 nM
7,c1ccc2[nH]c(Nc3ccc(Nc4nc5ccccc5[nH]4)cc3)nc2c1,783 nM
8,CCC1CN2CCc3c([nH]c4ccccc34)C2CC1CC1=NCCc2c1[nH]c1ccccc21 (configuration not stated),737 nM
9,Cc1cccc2nc(-c3ccc(-c4ccc(CN5CCN(c6ccncc6)CC5)cc4)cc3)[nH]c12,163 nM
10,CCCc1cc([C@@H](O)[C@@H]2C[C@@H]3CCN2C[C@@H]3CC)c2ccccc2n1,433 nM
11,O=C(Nc1cccc(CN2CCCN(Cc3ccc(O)cc3)CC2)c1)c1ccc(-c2ccccc2)cc1,342 nM
12,CC(C)C(C(=O)Nc1ccc2c(c1)OCO2)c1ccc(Cl)cc1 (configuration not stated),717 nM
13,CN1CCC(Oc2cc(NC(=O)Nc3ccc(-c4ccncc4)c(C(F)(F)F)c3)ccc2Cl)CC1,780 nM
14,COc1ccc2nccc([C@@H](O)CN3CCC(NCc4cc5sccc5nc4C(F)(F)F)CC3)c2c1,913 nM
15,O=C(Nc1ccc(Cl)c(C(F)(F)F)c1)NC1CCN(CCCCCNC(=O)C2CC2c2ccc(Cl)c(Cl)c2)CC1 (configuration not stated),683 nM
16,COc1ccc2ncc(F)c([C@@H](O)CN3CCC(NCc4cc(C#N)c5c(c4)CCO5)CC3)c2n1,889 nM
17,COc1ccc(CN2CCC(CNCCc3ccccc3Cl)CC2)cc1,1110 nM
18,CC(C)Cn1cc(C2CCN(CCN3CCC(CNC(=O)c4ccc(NC(=O)c5cc(Cl)cc(Cl)c5)cc4)CC3)CC2)c2ccccc21,693 nM
19,COc1cc(CCCON2C(=N)N=C(N)NC2(C)C)cc(OC)c1OC,39.1 nM
20,CN1CCCN(Cc2cccc(-c3ccc(NC(=O)c4ccc(Cl)cc4)cc3)c2)CC1,720 nM
21,CC(C)NCc1ccc(-c2cccc(NC(=O)c3ccc(C#N)cc3)c2)cc1,740 nM
22,COc1ccc2nccc([C@@H](O)CN3CCC(NCc4cc5ccccc5nc4O)CC3)c2c1,182 nM
23,O=S(=O)(Nc1cccc(CCN2CCC(N3CCCCC3)CC2)c1)c1cccc(C(F)(F)F)c1,976 nM
24,COc1cc(CCN(C)Cc2ccc(OC)c(OC)c2)ccc1NC(=O)c1cccc2c(O)c3cccc(F)c3nc12,203 nM

row,SMILES,XC50
1,Cc1nc2ccc(F)cc2n1C1CCN(C(=O)Cc2ccc(F)c(F)c2)CC1,1410 nM
2,Cc1nc2ccc3ccc(CNc4ccc(C(=O)N[C@@H](CCC(=O)O)C(=O)N[C@@H](Cc5cccs5)C(=O)O)c(F)c4)cc3c2c(=O)[nH]1,787 nM
3,CCCCOc1c(CCNCCCCNCCc2cc(F)c3ccccc3c2OCCCC)cc(F)c2ccccc12,629 nM
4,CN(c1ccccc1C(=O)Nc1ccccc1Oc1ccccc1)S(=O)(=O)c1ccccc1,1150 nM
5,CCC(=O)Nc1cc(=O)[nH]c2nc(-c3ccc(Cl)cc3)nn12,570 nM
6,O=C(Nc1ccnc(N2CCCN(Cc3cccc(O)c3)CC2)c1)c1ccc(F)cc1,1480 nM
7,O=S(=O)(Nc1cc2c(cc1OCc1ccccc1)CCN(C1CCC1)CC2)c1ccc(-c2ccc(Cl)cc2)cc1,1140 nM
8,COc1ccc2c(NN=Cc3ccc(N(C)C)cc3)ccnc2c1,663 nM
9,O=C(NCCCCCCNCc1ccc(-c2ccccc2)cc1)Nc1ccc(Cl)c(Cl)c1,962 nM
10,CCNc1cc(C)nc(Nc2ccc(NC(=O)c3ccccc3Cl)cc2)n1,1010 nM
11,Cc1cccc2nc(-c3ccc(-c4cccc(CNCCN(C)C)c4)cc3)[nH]c12,682 nM
12,COc1cc(Cc2cnc(NCCN3CCNCC3)nc2N)ccc1OCc1ccc(C(F)(F)F)cc1,922 nM
13,COc1cc(NC(=O)/C=C/c2cc(F)cc(F)c2F)cc(OCCN2CCC(O)(c3ccccc3)CC2)c1,166 nM
14,COc1ccccc1CNc1nc(Nc2ccccc2C)nc2ccccc12,806 nM
15,O=C(c1ccc(Cl)cc1Cl)N1CCCC(C(F)(F)F)C1 (configuration not stated),952 nM
16,CC(=O)C1(c2ccccc2)CCN(CCC2(c3ccc(Cl)c(Cl)c3)CN(C(=O)CC(C)C)CCO2)CC1 (configuration not stated),644 nM
17,CC(O)C1CCCCN1C(=O)c1cccc(-c2ccc(-c3nc4cc(F)ccc4[nH]3)cc2)c1 (configuration not stated),742 nM
18,CCN(CC)CCNc1ccnc2c3ccccc3n(C)c12,238 nM
19,CC1CNC(c2ccc(NC(=O)c3ccc(C(=O)Nc4ccc(C5=NC(C)CN5)cc4)cc3)cc2)=N1 (configuration not stated),33.6 nM
20,N#Cc1cccc(C(O)CN(Cc2ccccc2)Cc2ccccc2)c1 (configuration not stated),1270 nM
21,O=C(Cc1ccc(NC(=O)c2ccc(O)c(-c3ccc(Cl)c(Cl)c3)c2)cc1)NCCc1ccc(Cl)c(Cl)c1,717 nM
22,CCCCCNC(=N)c1ccc(OCCCCCOc2ccc(C(=N)NCCCCC)cc2)cc1,247 nM
23,OC(CNc1ccnc(Nc2ccc(Cl)cc2)n1)c1cccc(C(F)(F)F)c1 (configuration not stated),676 nM
24,CCN1CC=C(c2c[nH]c3ccccc23)CC1,1030 nM
